In US9676760B2, “Fused heterocyclic compounds as ion channel modulators” (Gilead Sciences, Inc., priority 2011, dated 2017):
Like-named read-outs stand apart in the source and are kept apart here.

Columns and labels:
[1] = target: T1, hNav 1.2 sodium channel isoform (Homo sapiens, UniProt Q99250); assay: hNav1.2 whole-cell voltage-clamp assay; type: cell-based; conditions: use-dependent block, 10 Hz, read-out: NAV1.2* UDB-10HZ
T1 construct: expressed in transfected cells
Experimental: Wild-type (WT) cDNA stably transfected in Chinese hamster ovary (CHO) cells is used to record INa. Unless otherwise noted, all reagents are purchased from Sigma-Aldrich (St Louis, Mo., U.S.A.).
Whole-cell voltage-clamp recordings are used to measure the biophysical properties of WT. […] Cells are allowed to stabilize for 10 min after establishment of the whole-cell configuration before current is measured. Series resistance is compensated 90% to assure that the command potential is reached within microseconds with a voltage error<2 mV. Leak currents are subtracted by using an online P/4 procedure and all currents are low-pass Bessel filtered at 5 kHz and digitized at 50 kHz.
For clarity, representative ramp currents are low pass filtered off-line at 50 Hz. Specific voltage-clamp protocols assessing channel activation, fast inactivation and availability during repetitive stimulation are used. Results are presented as mean±SEM.
Tonic block of peak current is measured using a step to −10 mV (20 ms) from a holding potential of −120 mV (0.2 Hz). Use-dependent block of peak current is measured during pulse number 300 of a pulse train (−10 mV, 5 ms, 300 pulses, 10 Hz or 25 Hz) from a holding potential of −120 mV. Two sequential pulse train stimulations are averaged to obtain mean current traces for each recording condition, which are then used for offline subtraction and analysis.
For use-dependent studies, cells are stimulated with depolarizing pulse trains (−10 mV, 5 ms, 300 pulses, 10 and 25 Hz) from a holding potential of −120 mV. Currents are then normalized to the peak current recorded in response to the first pulse in each frequency train. For tonic block studies, peak current is evaluated in response to a 20 ms depolarization to −10 mV (0.2 Hz). […] Results are presented as mean±SEM.
A stock solution of 10 mM compound of Formula I is prepared in 0.1 M HCl or DMSO. […] The final DMSO concentration was kept at 0.1% in all solutions. Direct application of the perfusion solution to the clamped cell is achieved using the Perfusion Pencil system (Automate, Berkeley, Calif.). Direct cell perfusion is driven by gravity at a flow rate of 350 μL/min using a 250 micron tip. This system sequesters the clamped cell within a perfusion stream and enables complete solution exchange within 1 second. The clamped cell is perfused continuously starting immediately after establishing the whole-cell configuration. Control currents are measured during control solution perfusion.
Solutions are perfused for three minutes prior to current recordings to allow equilibrium (tonic) drug block. Tonic block of peak currents is measured from this steady-state condition. Three sequential current traces are averaged to obtain a mean current for each recording. The mean current traces are utilized for offline analysis. Use-dependent block of peak current is measured during pulse number 300 of the pulse train, (−10 mV, 5 ms, 300 pulses, 10 Hz) from a holding potential of −120 mV.

[2] = target: wild-type human cardiac sodium channel, hNav1.5 (Homo sapiens, UniProt Q14524); assay: Peak INa screening assay (tonic and use-dependent block); type: cell-based; conditions: for inhibition at 1 µM: compound at 1 μM
Summary of the method: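 Whole-cell automated patch clamp (QPatch) at 23–25°C on HEK293 cells stably expressing hNav1.5 alpha subunit only, with CsF/CsCl pipette solution, pH 7.4. Compound at 1 μM in extracellular solution; bath Na+ could be cut to 20 mM with a nonpermeant cation. Tonic block measured at 0.1 Hz, use-dependent block at 3 Hz.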

[3] = tonic block of peak INa, 0.1 Hz, read-out: Peak TB 1 μM
[4] = use-dependent block of peak INa, 3 Hz, read-out: Peak UDB 1 μM

Sequence of wild-type human cardiac sodium channel, hNav1.5 (Q14524 whole entry): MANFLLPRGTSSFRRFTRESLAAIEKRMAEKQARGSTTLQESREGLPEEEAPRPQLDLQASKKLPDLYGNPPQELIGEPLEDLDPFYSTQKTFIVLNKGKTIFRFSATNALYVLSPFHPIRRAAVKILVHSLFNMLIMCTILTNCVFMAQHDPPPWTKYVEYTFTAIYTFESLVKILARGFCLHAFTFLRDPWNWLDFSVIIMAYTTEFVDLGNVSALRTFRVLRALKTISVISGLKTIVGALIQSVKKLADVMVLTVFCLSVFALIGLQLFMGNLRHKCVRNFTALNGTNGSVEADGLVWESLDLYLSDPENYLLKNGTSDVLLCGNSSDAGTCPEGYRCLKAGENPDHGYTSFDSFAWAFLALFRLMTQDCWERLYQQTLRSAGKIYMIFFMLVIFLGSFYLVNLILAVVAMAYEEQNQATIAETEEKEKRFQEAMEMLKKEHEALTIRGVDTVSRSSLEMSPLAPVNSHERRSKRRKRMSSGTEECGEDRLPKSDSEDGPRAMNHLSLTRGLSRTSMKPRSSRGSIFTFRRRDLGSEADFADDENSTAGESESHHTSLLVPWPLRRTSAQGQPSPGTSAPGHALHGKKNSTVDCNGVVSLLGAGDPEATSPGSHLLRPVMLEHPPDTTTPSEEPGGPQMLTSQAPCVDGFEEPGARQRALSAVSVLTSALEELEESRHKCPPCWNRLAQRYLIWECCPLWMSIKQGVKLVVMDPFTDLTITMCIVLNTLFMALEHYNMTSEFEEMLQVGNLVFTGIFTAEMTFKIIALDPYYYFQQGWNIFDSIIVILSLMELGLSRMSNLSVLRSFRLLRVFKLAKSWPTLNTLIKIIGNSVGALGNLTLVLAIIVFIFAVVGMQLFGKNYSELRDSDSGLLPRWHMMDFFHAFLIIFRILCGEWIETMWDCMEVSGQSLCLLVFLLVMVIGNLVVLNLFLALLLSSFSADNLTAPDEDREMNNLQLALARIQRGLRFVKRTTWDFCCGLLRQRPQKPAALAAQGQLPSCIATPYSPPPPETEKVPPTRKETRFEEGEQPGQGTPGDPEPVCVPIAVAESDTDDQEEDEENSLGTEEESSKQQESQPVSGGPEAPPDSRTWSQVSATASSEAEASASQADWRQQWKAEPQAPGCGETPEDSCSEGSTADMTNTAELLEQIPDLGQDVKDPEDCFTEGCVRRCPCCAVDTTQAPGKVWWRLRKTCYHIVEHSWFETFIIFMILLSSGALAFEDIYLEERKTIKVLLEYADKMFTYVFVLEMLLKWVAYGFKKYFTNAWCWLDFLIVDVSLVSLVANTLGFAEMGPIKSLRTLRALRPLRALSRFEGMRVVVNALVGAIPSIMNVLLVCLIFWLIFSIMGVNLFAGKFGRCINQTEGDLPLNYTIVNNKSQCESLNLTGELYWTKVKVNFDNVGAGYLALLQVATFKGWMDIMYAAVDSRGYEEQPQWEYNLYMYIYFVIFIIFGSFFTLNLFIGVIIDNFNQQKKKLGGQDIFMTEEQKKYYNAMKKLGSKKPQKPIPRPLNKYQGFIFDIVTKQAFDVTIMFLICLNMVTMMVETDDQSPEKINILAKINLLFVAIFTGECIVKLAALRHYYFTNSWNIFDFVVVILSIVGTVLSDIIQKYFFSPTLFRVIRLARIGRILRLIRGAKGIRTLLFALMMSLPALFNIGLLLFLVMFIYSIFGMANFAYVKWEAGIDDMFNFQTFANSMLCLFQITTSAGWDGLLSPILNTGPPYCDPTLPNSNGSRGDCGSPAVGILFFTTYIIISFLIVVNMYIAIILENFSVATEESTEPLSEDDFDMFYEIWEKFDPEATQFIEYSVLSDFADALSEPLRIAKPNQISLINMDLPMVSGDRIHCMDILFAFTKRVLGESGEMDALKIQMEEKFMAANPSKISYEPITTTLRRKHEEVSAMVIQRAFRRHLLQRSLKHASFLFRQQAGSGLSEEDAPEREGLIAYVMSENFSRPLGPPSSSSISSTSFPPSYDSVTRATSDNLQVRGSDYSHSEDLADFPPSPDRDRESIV
T1 sequence (Q99250 whole entry, canonical isoform): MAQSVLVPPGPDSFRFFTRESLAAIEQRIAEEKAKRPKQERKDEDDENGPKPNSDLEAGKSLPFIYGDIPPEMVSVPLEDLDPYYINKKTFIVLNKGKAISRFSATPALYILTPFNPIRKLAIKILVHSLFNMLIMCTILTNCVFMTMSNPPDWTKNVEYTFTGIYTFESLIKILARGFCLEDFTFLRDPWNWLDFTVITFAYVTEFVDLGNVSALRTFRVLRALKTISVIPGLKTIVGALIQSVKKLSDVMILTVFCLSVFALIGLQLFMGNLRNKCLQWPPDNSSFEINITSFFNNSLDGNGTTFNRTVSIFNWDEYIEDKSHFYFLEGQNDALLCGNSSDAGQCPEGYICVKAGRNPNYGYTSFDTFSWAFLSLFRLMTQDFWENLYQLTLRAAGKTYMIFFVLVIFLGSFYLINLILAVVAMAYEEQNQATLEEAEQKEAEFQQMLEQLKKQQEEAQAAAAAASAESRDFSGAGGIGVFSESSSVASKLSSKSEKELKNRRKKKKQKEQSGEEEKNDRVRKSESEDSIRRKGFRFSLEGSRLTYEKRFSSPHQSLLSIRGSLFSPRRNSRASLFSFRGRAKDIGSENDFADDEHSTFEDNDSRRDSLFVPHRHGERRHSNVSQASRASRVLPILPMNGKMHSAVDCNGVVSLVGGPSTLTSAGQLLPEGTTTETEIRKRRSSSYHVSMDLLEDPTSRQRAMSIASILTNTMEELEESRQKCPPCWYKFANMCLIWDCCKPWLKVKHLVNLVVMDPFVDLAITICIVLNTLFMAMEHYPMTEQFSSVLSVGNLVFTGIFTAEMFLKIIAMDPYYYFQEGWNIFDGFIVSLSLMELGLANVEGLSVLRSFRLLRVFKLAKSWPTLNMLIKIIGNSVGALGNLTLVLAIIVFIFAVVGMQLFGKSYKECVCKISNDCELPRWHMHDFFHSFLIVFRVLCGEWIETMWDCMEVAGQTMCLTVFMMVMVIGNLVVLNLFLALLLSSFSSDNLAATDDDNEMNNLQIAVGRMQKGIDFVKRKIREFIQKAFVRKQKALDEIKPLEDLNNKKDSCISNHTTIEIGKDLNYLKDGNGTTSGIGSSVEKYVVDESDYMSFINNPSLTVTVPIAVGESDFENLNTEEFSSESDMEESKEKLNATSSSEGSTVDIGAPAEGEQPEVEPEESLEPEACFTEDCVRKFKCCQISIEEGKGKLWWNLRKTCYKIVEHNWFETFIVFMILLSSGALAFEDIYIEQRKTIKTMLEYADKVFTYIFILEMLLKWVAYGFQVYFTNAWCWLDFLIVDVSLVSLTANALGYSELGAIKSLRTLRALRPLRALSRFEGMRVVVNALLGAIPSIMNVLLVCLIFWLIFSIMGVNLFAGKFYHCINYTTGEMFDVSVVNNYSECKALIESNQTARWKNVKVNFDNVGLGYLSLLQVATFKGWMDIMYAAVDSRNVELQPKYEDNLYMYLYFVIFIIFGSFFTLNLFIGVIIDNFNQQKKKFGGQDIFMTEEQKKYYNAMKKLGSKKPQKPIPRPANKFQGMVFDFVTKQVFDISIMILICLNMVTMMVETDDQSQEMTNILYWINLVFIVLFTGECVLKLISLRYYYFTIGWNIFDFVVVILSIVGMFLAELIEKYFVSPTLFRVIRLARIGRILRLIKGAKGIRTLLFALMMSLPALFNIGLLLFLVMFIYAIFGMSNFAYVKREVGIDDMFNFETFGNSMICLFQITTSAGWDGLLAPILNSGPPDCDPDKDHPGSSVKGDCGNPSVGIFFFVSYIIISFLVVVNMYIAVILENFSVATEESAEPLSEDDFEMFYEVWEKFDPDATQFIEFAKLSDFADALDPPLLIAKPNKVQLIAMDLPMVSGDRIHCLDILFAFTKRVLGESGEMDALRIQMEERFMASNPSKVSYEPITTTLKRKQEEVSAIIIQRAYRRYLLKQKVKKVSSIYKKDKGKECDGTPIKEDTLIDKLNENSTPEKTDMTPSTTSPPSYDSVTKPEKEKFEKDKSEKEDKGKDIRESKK

Q: Which inhibition at 1 µM [1] does the source give for `O=C1c2cc(C#Cc3ccc(C(F)(F)F)cc3)ccc2OCCN1Cc1ncccn1` [VIII-6, 4-(pyrimidin-2-ylmethyl)-7-((4-(trifluoromethyl)phenyl)ethynyl)-3,4-dihydrobenzo[f][1,4]oxazepin-5(2H)-one] here?
A: 20%

Q: For `O=C1c2cc(C#Cc3ccc(OC(F)(F)F)cc3)ccc2OCCN1Cc1ncccn1` [VIII-4, 4-(pyrimidin-2-ylmethyl)-7-((4-(trifluoromethoxy)phenyl)ethynyl)-3,4-dihydrobenzo[f][1,4]oxazepin-5(2H)-one], which inhibition at 1 µM [2, 3] is on record?
A: 12%

Q: What about the inhibition at 1 µM [2, 4] of the same compound?
A: 19%

Q: And the inhibition at 1 µM [1]?
A: 18%

Q: What does the source list for `O=C1CN(Cc2ccccc2)C(=O)c2cc(-c3ccc(C(F)(F)F)cc3)ccc2N1` [Compound X-8, 4-benzyl-7-(4-(trifluoromethyl)phenyl)-3,4-dihydro-1H-benzo[e][1,4]diazepine-2,5-dione]?
A: inhibition at 1 µM [2, 3]: 6%; inhibition at 1 µM [2, 4]: 10%; inhibition at 1 µM [1]: -14%

Q: Which inhibition at 1 µM [1] does the source give for `O=C1c2cc(-c3ccc(Cl)cc3)ccc2OCCN1Cc1ncccn1` [II-88, 7-(4-chlorophenyl)-4-(pyrimidin-2-ylmethyl)-3,4-dihydrobenzo[f][1,4]oxazepin-5(2H)-one] here?
A: -1%

Q: With `O=C1c2cc(-c3ccc(C(F)(F)F)cc3Cl)ccc2OCCN1Cc1ncccn1` [II-110, 7-(2-chloro-4-(trifluoromethyl)phenyl)-4-(pyrimidin-2-ylmethyl)-3,4-dihydrobenzo[f][1,4]oxazepin-5(2H)-one] as the compound, how does the inhibition at 1 µM [1] read?
A: -2%

Q: Which inhibition at 1 µM [1] does the source give for `O=C1c2cc(-c3ccc(C(F)(F)F)cc3)ccc2OC[C@H]2CN(CC(F)F)CCN12` [II-22, (R)-2-(2,2-difluoroethyl)-8-(4-(trifluoromethyl)phenyl)-3,4,12,12a-tetrahydro-1H-benzo[f]pyrazino[2,1-c][1,4]oxazepin-6(2H)-one] here?
A: 15%

Q: Which “peak INa TB” value ([2]; measured at 1 μM) does the source give for `O=C1c2cc(-c3ccc(C(F)(F)F)cc3F)ccc2OCCN1Cc1ncccn1` [II-105, 7-(2-fluoro-4-(trifluoromethyl)phenyl)-4-(pyrimidin-2-ylmethyl)-3,4-dihydrobenzo[f][1,4]oxazepin-5(2H)-one] here?
A: 9%

Q: And the “peak INa UDB” value ([2]; measured at 1 μM)?
A: 11%

Q: And the inhibition at 1 µM [2, 3]?
A: 9%

Q: And the inhibition at 1 µM [2, 4]?
A: 11%

Q: And the inhibition at 1 µM [1]?
A: 1%

Q: Which inhibition at 1 µM [1] does the source give for `O=C(c1ncccn1)N1CCOc2ccc(-c3ccc(OC(F)(F)F)cc3)cc2C1` [III-1, pyrimidin-2-yl(7-(4-(trifluoromethoxy)phenyl)-2,3-dihydrobenzo[f][1,4]oxazepin-4(5H)-yl)methanone] here?
A: -3%

Q: `O=C1c2cc(-c3ccc(Cl)cc3F)ccc2OCCN1Cc1ncccn1` [II-117, 7-(4-chloro-2-fluorophenyl)-4-(pyrimidin-2-ylmethyl)-3,4-dihydrobenzo[f][1,4]oxazepin-5(2H)-one] was tested. Which inhibition at 1 µM [1] did it give?
A: -18%

Q: With `O=C1c2cc(-c3ccc(C(F)(F)F)cc3)ccc2OC[C@H]2CN(CC(F)(F)F)CCN12` [II-83, (R)-2-(2,2,2-trifluoroethyl)-8-(4-(trifluoromethyl)phenyl)-3,4,12,12a-tetrahydro-1H-benzo[f]pyrazino[2,1-c][1,4]oxazepin-6(2H)-one] as the compound, how does the inhibition at 1 µM [1] read?
A: 10%

Q: Which inhibition at 1 µM [1] does the source give for `O=C1c2cc(-c3ccc(C(F)(F)F)cc3)ccc2OCCN1Cc1cn2ccccc2n1` [II-129, 4-(imidazo[1,2-a]pyridin-2-ylmethyl)-7-(4-(trifluoromethyl)phenyl)-3,4-dihydrobenzo[f][1,4]oxazepin-5(2H)-one] here?
A: 7%

Q: For `CC(C)(C)c1ccc(-c2ccc3c(c2)C(=O)N(Cc2ncccn2)CCO3)cc1` [II-98, 7-(4-tert-butylphenyl)-4-(pyrimidin-2-ylmethyl)-3,4-dihydrobenzo[f][1,4]oxazepin-5(2H)-one], which inhibition at 1 µM [1] is on record?
A: -8%

Q: How did the inhibition at 1 µM [1] turn out when `O=C1c2cc(-c3ccc(OC(F)(F)F)cc3)ccc2OCCN1Cc1ncccn1` [II-73, 4-(pyrimidin-2-ylmethyl)-7-(4-(trifluoromethoxy)phenyl)-3,4-dihydrobenzo[f][1,4]oxazepin-5(2H)-one] was run?
A: 19%
